Experimental data reported in patent publication US5242938A, “Derivatives of virginiamycin M1” (Merck & Co., Inc., priority 1992, dated 1993).
In brackets after ≈: the same amount, converted by molar mass. Like-named read-outs stand apart in the source and are kept apart here.

How the values were obtained:
Bacillus sp. (Mb 633) = experiment: Agar diffusion disc assay, Baci 633; type: cell-based; settings: Bacillus, 18 h
Method: (§1) Cultures employed in evaluating antimicrobial activity included plant pathogens, human and animal opportunistic pathogens and selected laboratory strains having specific-antibiotic sensitivities or chromosomal or R-plasmid-mediated resistances. […] The agar diffusion MIC's were determined using the method described by Barry in Anitbiotics in Laboratory Medicine, 2nd Ed., Ed. V. Lorian, pp. 1-63, William & Wilkins, Baltimore, 1986. Each test compound was dissolved in methanol to a concentration of 1 mg/ml. Serial dilutions of these compounds were also made to determine an agar diffusion MIC. 20 μl of each dilution was pipetted on to 6 mm paper discs, air dried and placed onto the surface of an agar plate seeded with the appropriate bacteria (~10^6 cfu). Seeded agar plates were incubated overnight (~18 hours) at 25° C. Zone sizes were measured to the nearest mm. Each compound was tested in triplicate and the results shown represent the mean.

CCK-A (rat pancreas) [1] = biological target: T1, CCK-A (rat pancreas) (Rattus norvegicus, UniProt P30551); experiment: [125I]BHCCK-8 radioligand binding, rat pancreatic preparation; settings: read-out: CCK binding inhibition - IC50, [125I]BHCCK
T1 construct: from tissue; host or cells: rat pancreas
T1 sequence (P30551 1-444): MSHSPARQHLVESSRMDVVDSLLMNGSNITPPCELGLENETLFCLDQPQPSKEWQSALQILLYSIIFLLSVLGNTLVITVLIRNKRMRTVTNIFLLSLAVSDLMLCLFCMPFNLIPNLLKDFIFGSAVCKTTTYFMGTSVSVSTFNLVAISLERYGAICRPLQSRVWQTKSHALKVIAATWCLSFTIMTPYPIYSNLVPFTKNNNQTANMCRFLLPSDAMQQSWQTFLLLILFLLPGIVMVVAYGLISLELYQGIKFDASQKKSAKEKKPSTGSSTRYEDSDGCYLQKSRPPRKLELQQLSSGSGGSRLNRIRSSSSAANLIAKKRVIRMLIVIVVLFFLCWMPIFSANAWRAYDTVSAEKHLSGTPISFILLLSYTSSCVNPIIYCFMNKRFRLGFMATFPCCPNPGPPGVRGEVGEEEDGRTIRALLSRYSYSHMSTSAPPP
Method: (§2) The resulting supernatant was re-spun at 20,000×g for 20 minutes. […] Incubations were for 40 minutes at 4° C. and were terminated by filtration and washing with ice cold 100 mM saline. […] Incubations were for 30 minutes at room temperature and were terminated by filtration over GF/C filters and washing with 100 mM NaCl.

[2] = test system: Escherichia coli (Mb 1418); experiment: Agar diffusion disc assay, Coli 1418; type: cell-based; settings: Escherichia coli, 18 h; @ 20 g/disc; read-out: Inhibition zone diameter, Coli 1418
Method: as §1

[3] = test system: En terobacter aergenes (Mb 835); experiment: Agar diffusion disc assay, Ent 835; type: cell-based; settings: 18 h; @ 20 g/disc; read-out: Inhibition zone diameter, Ent 835
Method: as §1

[4] = biological target: T2, CCK-B (guinea pig cortex) (Cavia porcellus, UniProt H0VZC5); experiment: [125I]BHCCK-8 radioligand binding, guinea pig cortical preparation; settings: read-out: CCK binding inhibition - IC50, [125I]BHCCK
T2 construct: guinea pig cortical preparations; from tissue; host or cells: guinea pig brain cortex membranes
T2 sequence (H0VZC5 1-426): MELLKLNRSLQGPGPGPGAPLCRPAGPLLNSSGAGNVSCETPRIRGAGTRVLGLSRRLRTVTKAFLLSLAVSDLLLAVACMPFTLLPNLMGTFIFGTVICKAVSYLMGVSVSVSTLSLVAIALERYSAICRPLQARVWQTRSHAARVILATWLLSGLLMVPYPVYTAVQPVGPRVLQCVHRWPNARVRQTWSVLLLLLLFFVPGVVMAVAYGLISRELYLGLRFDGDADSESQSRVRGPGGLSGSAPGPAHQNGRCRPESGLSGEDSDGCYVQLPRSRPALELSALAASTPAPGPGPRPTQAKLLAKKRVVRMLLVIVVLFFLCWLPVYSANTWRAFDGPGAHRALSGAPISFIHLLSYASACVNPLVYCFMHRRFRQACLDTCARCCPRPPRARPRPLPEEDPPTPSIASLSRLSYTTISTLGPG
Method: as §2

[5] = test system: Staphylococcus aureus (Mb 2983); experiment: Agar diffusion disc assay, Sta 2983; type: cell-based; settings: Staphylococcus aureus, 18 h; @ 20 g/disc; read-out: Inhibition zone diameter, Sta 2983
Method: as §1

[6] = test system: Staphylococcus aureus (Mb 108, ATCC 6538P); experiment: Agar diffusion disc assay, Sta 108; type: cell-based; settings: Staphylococcus aureus, ATCC6538P, 18 h; @ 20 g/disc; read-out: Inhibition zone diameter, Sta 108
Method: as §1

[7] = test system: Salmonella gallinarum (Mb 1287); experiment: Agar diffusion disc assay, Salm 1287; type: cell-based; settings: Salmonella enterica, GALLINARUM, 18 h; @ 20 g/disc; read-out: Inhibition zone diameter, Salm 1287
Method: as §1

[8] = test system: Corynebacterium pseudodiphtheriticum (Mb 261, ATCC 9742); experiment: Agar diffusion disc assay, Cory 261; type: cell-based; settings: Corynebacterium pseudodiphtheriticum, ATCC9742, 18 h; @ 20 g/disc; read-out: Inhibition zone diameter, Cory 261
Method: as §1

CCK-A (rat pancreas) [9] = biological target: T1, CCK-A (rat pancreas); experiment: [3H]L-364,718 CCK-A selective antagonist ligand binding, pancreas; settings: read-out: CCK binding inhibition - IC50, [3H]L-364,718
Method: as §2

[10] = biological target: T2, CCK-B (guinea pig cortex); experiment: [3H]L-365,260 CCK-B selective antagonist ligand binding, brain membranes; settings: for IC50: read-out: CCK binding inhibition - IC50, [3H]L-365,260
Method: as §2

[11] = test system: Micrococcus luteus (Mb 1101, ATCC 9341); experiment: Agar diffusion disc assay, Micr 1101; type: cell-based; settings: Micrococcus luteus; for MIC: read-out: Agar Diffusion MIC versus Micrococcus luteus; for zone of inhibition at 2.5 µg/disc: 2.50 μg/disc; for zone of inhibition at 5 µg/disc: 5.00 μg/disc; for zone of inhibition at 10 µg/disc: 10.0 μg/disc
Method: as §1

[12] = test system: Bacillus subtilis (Mb 964, ATCC 6633); experiment: Agar diffusion disc assay, Subt 964; type: cell-based; settings: Bacillus subtilis, ATCC6633, 18 h; @ 20 g/disc; read-out: Inhibition zone diameter, Subt 964
Method: as §1

[13] = test system: Streptococcus agalactiae (Mb 2875); experiment: Agar diffusion disc assay, Str 2875; type: cell-based; settings: Streptococcus agalactiae, 18 h; @ 20 g/disc; read-out: Inhibition zone diameter, Str 2875
Method: as §1

[14] = test system: Pseudomonas stutzeri (Mb 1231, ATCC 11607); experiment: Agar diffusion disc assay, Pseu 1231; type: cell-based; settings: Stutzerimonas stutzeri, ATCC11607, 18 h; @ 20 g/disc; read-out: Inhibition zone diameter, Pseu 1231
Method: as §1

[15] = test system: Streptococcus faecium (Mb 2820); experiment: Agar diffusion disc assay, Str 2820; type: cell-based; settings: Enterococcus faecium, 18 h; @ 20 g/disc; read-out: Inhibition zone diameter, Str 2820
Method: as §1

[16] = ATCC9341, 18 h, @ 20 g/disc, read-out: Inhibition zone diameter, Micr 1101
[17] = ATCC9341, 25° C., ~18 hours, read-out: Mean of triplicate zone size versus Micrococcus luteus
[18] = ATCC9341, 20.0 μg/disc, 25° C., ~18 hours, read-out: Mean of triplicate zone size versus Micrococcus luteus

Row | Structure (SMILES) | IC50 (CCK-A (rat pancreas) [1]) | zone of inhibition at 20 µg/disc [2] | zone of inhibition at 20 µg/disc [3] | IC50 [4] | zone of inhibition at 20 µg/disc [5] | zone of inhibition at 20 µg/disc [6] | zone of inhibition at 20 µg/disc [7] | zone of inhibition at 20 µg/disc [8] | IC50 (CCK-A (rat pancreas) [9]) | A.R. = agonist ratio = IC50([3H]L365,260)/IC50([125I]CCK) [10] | IC50 [10] | zone of inhibition at 20 µg/disc [11, 16] | MIC ([11]; ATCC9341, 18 h) | zone of inhibition at 2.5 µg/disc [11, 17] | zone of inhibition at 5 µg/disc [11, 17] | zone of inhibition at 10 µg/disc [11, 17] | zone of inhibition at 20 µg/disc [11, 18] | zone of inhibition at 20 µg/disc [12] | zone of inhibition at 20 µg/disc [13] | zone of inhibition at 20 µg/disc [14] | further results
1 | CCCCC(=O)O[C@@H]1/C=C(C)/C=C/CNC(=O)/C=C/[C@@H](C)[C@@H](C(C)C)OC(=O)C2=CCCN2C(=O)c2coc(n2)CC(=O)C1 [Example 4] | > 3000 nM | 0 mm | 0 mm | 500 nM | 0 mm | 0 mm | 0 mm | 0 mm | > 3000 nM | 2 | 1200 nM | 25 mm | 0.54 µM (≈ 0.329 µg/mL) | 16 mm | 19 mm | 21 mm | 22 mm | 0 mm | 0 mm | 0 mm | zone of inhibition at 20 µg/disc (Bacillus sp. (Mb 633); @ 20 g/disc, read-out: Inhibition zone diameter, Baci 633): 0 mm; zone of inhibition at 1.25 µg/disc ([11]; ATCC9341, 1.25 μg/disc, 25° C., ~18 hours, read-out: Mean of triplicate zone size versus Micrococcus luteus): 12 mm; zone of inhibition at 20 µg/disc [15]: 0 mm
2 | CCC(=O)O[C@@H]1/C=C(C)/C=C/CNC(=O)/C=C/[C@@H](C)[C@@H](C(C)C)OC(=O)C2=CCCN2C(=O)c2coc(n2)CC(=O)C1 [Example 3] | > 3000 nM | 0 mm | 0 mm | 600 nM | 12 mm | 0 mm | 0 mm | 0 mm | > 3000 nM | 2 | 1000 nM | 0 mm | 2.51 µM (≈ 1.46 µg/mL) | 7 mm | 13 mm | 17 mm | 19 mm | 21 mm | 0 mm | 0 mm | zone of inhibition at 20 µg/disc (Bacillus sp. (Mb 633); read-out: Inhibition zone diameter, Baci 633, @ 20 g/disc): 11 mm; zone of inhibition at 20 µg/disc [15]: 0 mm
